According to publication PMC10762035, “Molecular basis of human trace amine-associated receptor 1 activation” (Nature Communications, 2024):
Where a chain is given by its changes, count along the chain named. Values joined by “and” are separate entries in the source; they are usually repeats but may differ in a detail not shown here. Equal values may be shown once.

Assays:
Assay type in all cases: cell-based
[1] = target: T1, hTA1 C178S (Homo sapiens, UniProt Q96RJ0, C178S); test: GloSensor cAMP accumulation assay, C178S mutant; conditions: for C178S - Normalized Luminescence Counts (N=2): log[Compound], single replicates
T1 construct: expressed in transfected cells; host or cells: HEK293T
T1 sequence (Q96RJ0 1-339 C178S): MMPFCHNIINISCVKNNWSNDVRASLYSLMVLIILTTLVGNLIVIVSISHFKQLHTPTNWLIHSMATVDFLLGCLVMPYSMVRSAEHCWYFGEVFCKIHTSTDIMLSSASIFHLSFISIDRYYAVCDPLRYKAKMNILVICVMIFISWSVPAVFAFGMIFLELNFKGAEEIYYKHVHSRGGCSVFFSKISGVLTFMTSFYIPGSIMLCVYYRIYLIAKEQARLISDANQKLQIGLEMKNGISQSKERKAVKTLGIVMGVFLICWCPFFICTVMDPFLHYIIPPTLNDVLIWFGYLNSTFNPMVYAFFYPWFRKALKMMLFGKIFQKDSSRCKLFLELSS

[2] = target: T2, hTA1 C13S (Homo sapiens, UniProt Q96RJ0, C13S); test: GloSensor cAMP accumulation assay, C13S mutant; conditions: for C13S - Normalized Luminescence Counts (N=2): log[Compound], single wells
T2 construct: expressed in transfected cells; host or cells: HEK293T
T2 sequence (Q96RJ0 1-339 C13S): T1 sequence (Q96RJ0 1-339 C178S) with C13S, S178C

[3] = target: T3, hTA1 T271N (Homo sapiens, UniProt Q96RJ0, T271N); test: GloSensor cAMP accumulation assay, T271N mutant; conditions: for Normalized Luminescence Counts for Concentration Response Curves: log[Agonist], single replicates
T3 construct: expressed in transfected cells; host or cells: HEK293T
T3 sequence (Q96RJ0 1-339 T271N): T1 sequence (Q96RJ0 1-339 C178S) with S178C, T271N

[4] = target: T4, hTA1 W264F (Homo sapiens, UniProt Q96RJ0, W264F); test: GloSensor cAMP accumulation assay, W264F mutant;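 note: cells transiently transfected with receptor plus GloSensor, luminescence read 30 min after agonist addition at room temperature, concentration-response curves fitted by log(agonist) vs response regression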
T4 construct: expressed in transfected cells; host or cells: HEK293T
T4 sequence (Q96RJ0 1-339 W264F): T1 sequence (Q96RJ0 1-339 C178S) with S178C, W264F

[5] = target: T5, hTA1 b2N (Homo sapiens, UniProt Q96RJ0); test: GloSensor cAMP accumulation assay, b2N construct; conditions: b2N, n=2
T5 construct: read by me as the first 25 residues of β2AR (N); expressed in transfected cells; host or cells: HEK293T

[6] = target: T6, hTA1 I290N (Homo sapiens, UniProt Q96RJ0, I290N); test: GloSensor cAMP accumulation assay, I290N mutant;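 note: cells transiently co-expressing hTA1 and the GloSensor cAMP biosensor, luminescence read 30 min after compound addition at room temperature, efficacy scaled to the maximal β-PEA response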
T6 construct: expressed in transfected cells; host or cells: HEK293T
T6 sequence (Q96RJ0 1-339 I290N): T1 sequence (Q96RJ0 1-339 C178S) with S178C, I290N

[7] = C178S, each row one experiment (N=2), 3 replicates
[8] = hTA1 I290N mutant minus WT average

T5 sequence (Q96RJ0 with tags, fused parts or gaps): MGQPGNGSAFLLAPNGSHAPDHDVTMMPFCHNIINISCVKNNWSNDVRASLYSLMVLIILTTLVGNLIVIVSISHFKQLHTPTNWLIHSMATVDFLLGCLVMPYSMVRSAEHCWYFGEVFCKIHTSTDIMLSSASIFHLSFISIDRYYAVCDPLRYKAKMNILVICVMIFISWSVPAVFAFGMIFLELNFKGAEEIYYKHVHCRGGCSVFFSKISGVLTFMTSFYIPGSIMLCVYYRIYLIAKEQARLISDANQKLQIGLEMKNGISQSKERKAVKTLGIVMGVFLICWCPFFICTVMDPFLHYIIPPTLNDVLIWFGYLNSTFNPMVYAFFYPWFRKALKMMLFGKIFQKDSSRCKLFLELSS

Q: `NCCc1ccccc1` [β-PEA, β-phenethylamine] was tested. Which “pEC50 values, Mean” value [1, 7] did it give?
A: 7.235 and 7.223

Q: What about the “ΔpEC50 values (each mutant value - WT average), Mean” value [1, 7] of the same molecule?
A: 0.1416 and 0.1292

Q: What about the “Span ± SEM (Emax normalized to β-PEA)” value ([1]; C178S, n=2) of the same molecule?
A: 100 ± 2.97

Q: What about the “pEC50 ± SEM” value ([1]; C178S, n=2) of the same molecule?
A: 7.23 ± 0.07

Q: What about the EC50 ([1]; C178S, n=2, read-out: EC50) of the same molecule?
A: 59 nM

Q: And the “Emax values, Mean” value ([1]; C178S, β-PEA = 100, each row one experiment (N=2), 3 replicates)?
A: 100

Q: And the “C178S - Normalized Luminescence Counts (N=2)” value ([1]; M = -5)?
A: 99.3155 and 106.699 and 98.2875 and 86.7589 and 74.9716 and 83.1688

Q: What about the “C178S - Normalized Luminescence Counts (N=2)” value ([1]; M = -5.522) of the same molecule?
A: 92.9136 and 85.3902 and 85.0163 and 113.744 and 82.4209 and 115

Q: And the “C178S - Normalized Luminescence Counts (N=2)” value ([1]; M = -6)?
A: 105.577 and 101.792 and 96.652 and 125.741 and 90.4686 and 124.155

Q: And the “C178S - Normalized Luminescence Counts (N=2)” value ([1]; M = -6.522)?
A: 93.1473 and 96.0445 and 75.0162 and 77.2154 and 68.719 and 87.1478

Q: What about the “C178S - Normalized Luminescence Counts (N=2)” value ([1]; M = -7) of the same molecule?
A: 68.3806 and 62.1189 and 51.4645 and 64.3212 and 56.124 and 61.3594

Q: And the “C178S - Normalized Luminescence Counts (N=2)” value ([1]; M = -7.522)?
A: 36.8382 and 29.782 and 30.7166 and 32.2204 and 27.7927 and 32.0708

Q: What about the “C178S - Normalized Luminescence Counts (N=2)” value ([1]; M = -8) of the same molecule?
A: 16.2772 and 19.3614 and 14.922 and 22.976 and 17.1422 and 19.9245

Q: And the “C178S - Normalized Luminescence Counts (N=2)” value ([1]; M = -8.522)?
A: 3.333 and 3.193 and 2.959 and 9.783 and 5.445 and 7.24

Q: What about the “C178S - Normalized Luminescence Counts (N=2)” value ([1]; M = -9) of the same molecule?
A: 1.604 and 3.099 and 1.838 and 2.393 and 2.184 and 1.825

Q: What about the “C178S - Normalized Luminescence Counts (N=2)” value ([1]; M = -9.522) of the same molecule?
A: 0.7163 and 0.2957 and -0.07812 and 1.615 and 0.2691 and 1.107

Q: What about the “C178S - Normalized Luminescence Counts (N=2)” value ([1]; M = -10) of the same molecule?
A: 1.791 and 0.9967 and 1.277 and -3.171 and -1.3464 and -0.5985

Q: And the “C178S - Normalized Luminescence Counts (N=2)” value ([1]; M = -10.522)?
A: -0.5454 and 0.763 and 0.06206 and -2.244 and -1.825 and -1.7054

Q: And the “C178S - Normalized Luminescence Counts (N=2)” value ([1]; M = -11)?
A: 0.1088 and 0.5294 and -0.07812 and 0.3289 and 0.7777 and -1.376

Q: And the “C178S - Normalized Luminescence Counts (N=2)” value ([1]; M = -11.522)?
A: 1.37 and -0.1716 and -0.2183 and -0.6583 and -1.287 and 0.3289

Q: What about the “C178S - Normalized Luminescence Counts (N=2)” value ([1]; M = -12) of the same molecule?
A: -0.7791 and 0.2957 and -0.265 and -2.932 and -0.03006 and 1.645

Q: What about the “C178S - Normalized Luminescence Counts (N=2)” value ([1]; M = -12.522) of the same molecule?
A: -0.452 and -1.34 and -0.6856 and -1.915 and -0.9575 and -0.4489

Q: What about the “ΔEmax values (each mutant value - WT average)” value ([2]; C13S) of the same molecule?
A: 0

Q: And the “ΔpEC50 values (each mutant value - WT average)” value ([2]; C13S)?
A: -0.3351 and -0.4017

Q: What about the Emax values ([2]; C13S, Mean of fit per experiment) of the same molecule?
A: 100

Q: And the “Span ± SEM (Emax normalized to β-PEA)” value ([2]; C13S, n=2)?
A: 100 ± 2.41

Q: And the “pEC50 ± SEM” value ([2]; C13S, n=2)?
A: 6.73 ± 0.05

Q: What about the EC50 ([2]; C13S, n=2, read-out: EC50) of the same molecule?
A: 188 nM

Q: What about the “pEC50 values, Mean” value ([2]; hTA1 C13S, mean of 3 replicates, one line per independent experiment) of the same molecule?
A: 6.758 and 6.6918

Q: What about the “C13S - Normalized Luminescence Counts (N=2)” value ([2]; M = -5) of the same molecule?
A: 99.2705 and 93.6371 and 125.268 and 108.514 and 91.163 and 111.602

Q: And the “C13S - Normalized Luminescence Counts (N=2)” value ([2]; M = -5.522)?
A: 84.5018 and 89.7165 and 90.3636 and 93.2337 and 75.9363 and 100.338

Q: What about the “C13S - Normalized Luminescence Counts (N=2)” value ([2]; M = -6) of the same molecule?
A: 78.7162 and 86.7856 and 86.6715 and 80.2383 and 65.7078 and 88.5033

Q: And the “C13S - Normalized Luminescence Counts (N=2)” value ([2]; M = -6.522)?
A: 64.3281 and 49.293 and 64.0617 and 65.0295 and 54.7831 and 70.7417

Q: What about the “pEC50 values, Mean” value ([3]; T271N mutant, Figure 5B, each row one independent experiment (3 replicates)) of the same molecule?
A: 6.643 and 6.211

Q: What about the “Emax values, Mean” value ([3]; T271N mutant, Figure 5B, β-PEA = 100, each row one independent experiment (3 replicates)) of the same molecule?
A: 100

Q: And the “Normalized Luminescence Counts for Concentration Response Curves” value ([3]; T271N, M -7)?
A: 26.2249 and 22.04 and 25.7454 and 13.723 and 18.7522 and 17.914

Q: And the “Normalized Luminescence Counts for Concentration Response Curves” value ([3]; T271N, M -7.522)?
A: 13.7138 and 6.913 and 9.921 and 7.175 and 4.66 and 5.236

Q: And the “Normalized Luminescence Counts for Concentration Response Curves” value ([3]; T271N, M -8)?
A: 4.385 and 5.17 and 5.257 and 2.984 (2×) and 1.569

Q: What about the “Normalized Luminescence Counts for Concentration Response Curves” value ([3]; T271N, M -8.522) of the same molecule?
A: 2.467 and 1.9 and 1.508 and 0.2596 and -0.631 and 0.5215

Q: What about the “Normalized Luminescence Counts for Concentration Response Curves” value ([3]; T271N, M -9) of the same molecule?
A: 0.4181 and 0.5052 and 1.246 and -0.2643

Q: And the “Span ± SEM (Emax normalized to β-PEA)” value ([3]; T271N, n=2)?
A: 100 ± 3.3

Q: What about the “pEC50 ± SEM” value ([3]; T271N, n=2) of the same molecule?
A: 6.43 ± 0.06

Q: What about the EC50 ([3]; T271N, n=2, read-out: EC50) of the same molecule?
A: 374 nM

Q: What about the “ΔEmax values (each mutant value - WT average)” value ([4]; W246F mutant (so in the source) minus WT average) of the same molecule?
A: 0

Q: What about the “pEC50 values, Mean” value ([4]; W246F mutant (so in the source), each line an independent experiment, 3 replicates) of the same molecule?
A: 5.329 and 5.8775

Q: And the “Emax values, Mean” value ([4]; W246F mutant (so in the source), β-PEA = 100, each line an independent experiment, 3 replicates)?
A: 100

Q: And the “Span ± SEM (Emax normalized to β-PEA)” value ([4]; W264F, n=2)?
A: 100 ± 4.75

Q: And the “pEC50 ± SEM” value ([4]; W264F, n=2)?
A: 5.6 ± 0.06

Q: What about the EC50 ([4]; W264F, n=2, read-out: EC50) of the same molecule?
A: 2490 nM

Q: What about the “Span ± SEM (Emax normalized to β-PEA)” value [5] of the same molecule?
A: 100 ± 3.11

Q: What about the “pEC50 ± SEM” value [5] of the same molecule?
A: 7.59 ± 0.07

Q: And the EC50 ([5]; read-out: EC50)?
A: 25.4 nM

Q: And the “Span ± SEM (Emax normalized to β-PEA)” value ([6]; I290N, n=2)?
A: 100 ± 2.5

Q: What about the “pEC50 ± SEM” value ([6]; I290N, n=2) of the same molecule?
A: 7.26 ± 0.06

Q: What about the EC50 ([6]; I290N, n=2, read-out: EC50) of the same molecule?
A: 54.7 nM

Q: What about the “cAMP accumulation response, single replicate values (source data, Supplementary Figure 5)” value ([6]; hTA1 I290N (N=2), log[Compound], M = -5) of the same molecule?
A: 123.698 and 115.527 and 100.651 and 114.899

Q: What about the “ΔEmax values (each mutant value - WT average), Mean” value [6, 8] of the same molecule?
A: 0

Q: What about the “ΔpEC50 values (each mutant value - WT average), Mean” value [6, 8] of the same molecule?
A: 0.1524 and 0.1839

Q: What about the “pEC50 values, Mean” value ([6]; hTA1 I290N mutant, Figure 3B source data, each grid row a separate experiment, 3 replicates) of the same molecule?
A: 7.2459 and 7.277

Q: What about the “Emax values, Mean” value ([6]; hTA1 I290N mutant, β-PEA set to 100, each grid row a separate experiment, 3 replicates) of the same molecule?
A: 100
